Measurements reported in article PMC9256669, “Monomethyl auristatin antibody and peptide drug conjugates for trimodal cancer chemo-radio-immunotherapy” (Nature Communications, 2022).
Several values for one entry are separate records, joined by “and”; a condition that tells them apart may be missing. Identical values can stand only once. Like-named read-outs stand apart in the source and are kept apart here. Non-standard residues stand in square brackets, D forms with d. Residues, ends and D or L forms follow the SMILES beside them. *: point of attachment. Dolaproine = CO[C@@H]([C@@H]1CCCN1)[C@@H](C)C(=O)O; Dil = CC[C@H](C)[C@H](NC)[C@@H](CC(=O)O)OC; X1 = C[C@@H](N*)[C@@H](O)c1ccccc1; NMeV = CN[C@H](C(=O)O)C(C)C

What was measured:
LL/2 cells [1] = experiment: Clonogenic survival with MMAE and 2 Gy (SF2); type: cell-based, murine; parameters: key: fraction surviving 2 Gy relative to non-irradiated cells
Procedure: Cells were treated with MMAE for 24 h and then irradiated with 2 Gy. […] Following IR, cells were counted, re-plated at varying cell numbers in drug free media. 10–14 days after initial seeding formed colonies were methanol fixed, stained with crystal violet, and counted. Surviving fraction at 2 Gy (SF2) was calculated as the fraction of cells surviving 2 Gy compared to non-irradiated cells. […]

[2] = tested on: CAL27 WT and CAL27 PIK3CA H1047R cells; experiment: Cell culture MMAE sensitivity of isogenic cell lines; type: cell-based, human; settings: CAL27 WT vs CAL27 PIK3CA H1047R
Text: Specific Comment 3: “Line 266: fig 3e: the **** significance; is this IR+MMAE vs IR, or vs MMAE? Please […]
Response: Reviewer #2 raised a similar comment, (Rev #2, Comment 5). As mentioned, the statistical analysis in our original submission compared all 4 experimental groups. Based on Reviewers #2 & #4 […]
Importantly for scientific rigor & reproducibility , we would highlight that MMAE ± IR tumor response studies in syngeneic mice were replicated […]
Specific Comment 4: “Experiments with RAG mice showing that CD8+ T-cells are involved in the response to MMAE+IR are intriguing. A mechanistic explanation is however lacking. If T-cells are crucial for tumor control under IR, why is there such good response in CAL27 xenografts in nude mice with monotherapy only?” […]
adaptive immunity on durable tumor control of syngeneic tumors treated with MMAE + IR. Using depleting […]
mediated durable tumor control of MMAE radiosensitization . […]
Response: In cell culture testing, MOC1 and MOC2 cells were sensitive to MMAE and CDX3379-MMAE as measured by Alamar Blue assay. For Alamar Blue assay cytotoxicity, we measured cell viability at 72 hr of […]

LL/2 cells [3] = experiment: Cell cycle analysis; type: cell-based, murine
Procedure: Cells were MMAE treated for 24 h, fixed in 70% ethanol, stained with FxCyclePI/RNase solution (Life Technologies), and then analyzed by FACS using FlowJo software. […]
0.9 b) Cell cycle analysis […]
Source data are provided in Source Data file.

[4] = tested on: 4NQO-induced tongue tumors; settings: 10 nmoles ACPP-MMAE x 2 doses + whole tongue IR 5 Gy x 2 at week 20; tongues at week 22; vs untreated control
Procedure: 4-Nitroquinoline N-oxide (4NQO, Sigma Aldrich-N8141) was dissolved in propylene glycol as a stock solution (4 mg/ml) and further diluted in drinking water to a final concentration of 50 μg/ml. […] Since the entire tongue was exposed to 4NQO, the whole tongue was delineated and given 5 Gy × 2 using PXI SmART irradiator with 225 kVp X-ray tube. IR was delivered as 2 parallel opposed fields. All mice were given a full oral cavity examination biweekly, and any observed pathological changes were documented. On week 22, animals were euthanized, and tissues and oral pharynx were fixed in PAXgene tissue FIX (Qiagen) at room temperature for 12 h. Tissues were then transferred to 70% ethanol and paraffin embedded. Tongue sections were H&E stained and histopathologically assessed for the number and size of carcinoma lesions per tongue by a qualified Pathologist (A.A.M.) who was blinded manner to treatment of each slide.

MC38 tumors = settings: status at the day printed in the same line, one line per mouse
Procedure: MOC1, B16, LL/2, and MC38 tumor cells were injected subcutaneously into the hindlimbs of 6-week-old female C57BL/6 albino mice in 100 µl of 1:1 Matrigel (BD) and PBS solution. Fractionated IR was delivered focally to the tumor-bearing hindlimbs (3 Gy to MC38 tumors and 5 Gy to LL/2 and B16 tumors) as indicated in figure legends using a PXI X-RAD 225 XL irradiator at maximal dose rate of 3 Gy/min with a beam-conditioning aluminum filter (Precision X-ray Irradiation). For RAG1 KO studies, 6-week-old female Rag1^tm1Mom mice were injected subcutaneously with tumor cells in their hindlimbs (Jackson Labs). For CD8 depletion studies, mice were i.p. injected with anti-CD8 (BioXCell #BE0117) at 10 mg/kg on days −6, −5 and −4 tumor cell implant and then weekly starting on day after tumor cells were injected or control antibody. […] Tumor volumes were measured and calculated using the formula as ½ * length * width^2. Mice were sacrificed when tumor volume reached >1500 mm^3, maximal tumor volume approved on our protocol for subcutaneous tumors.

Compound: CC[C@H](C)[C@@H]([C@@H](CC(=O)N1CCC[C@H]1[C@H](OC)[C@@H](C)C(=O)N[C@H](C)[C@@H](O)c1ccccc1)OC)N(C)C(=O)[C@@H](NC(=O)[C@@H](NC)C(C)C)C(C)C [MMAE, monomethyl auristatin E] (H-[NMeV]V[Dil][Dolaproine]-X1)
- SF2 (LL/2 cells [1]; MMAE 1 nM with 2 Gy, replicate 1): 0.48
- SF2 (LL/2 cells [1]; MMAE 1 nM with 2 Gy, replicate 2): 0.48
- SF2 (LL/2 cells [1]; MMAE 1 nM with 2 Gy, replicate 3): 0.66
- SF2 (LL/2 cells [1]; MMAE 1 nM with 2 Gy, replicate 4): 0.44
- SF2 (LL/2 cells [1]; MMAE 1 nM with 2 Gy, replicate 5): 0.62
- SF2 (LL/2 cells [1]; MMAE 1 nM with 2 Gy, replicate 6): 0.64
- SF2 (LL/2 cells [1]; MMAE 2 nM with 2 Gy, replicate 1): 0.46
- SF2 (LL/2 cells [1]; MMAE 2 nM with 2 Gy, replicate 2): 0.53
- SF2 (LL/2 cells [1]; MMAE 2 nM with 2 Gy, replicate 3): 0.53
- SF2 (LL/2 cells [1]; MMAE 2 nM with 2 Gy, replicate 4): 0.41
- SF2 (LL/2 cells [1]; MMAE 2 nM with 2 Gy, replicate 5): 0.43
- SF2 (LL/2 cells [1]; MMAE 2 nM with 2 Gy, replicate 6): 0.43
- SF2 (LL/2 cells [1]; MMAE 3 nM with 2 Gy, replicate 1): 0.29
- SF2 (LL/2 cells [1]; MMAE 3 nM with 2 Gy, replicate 2): 0.45
- SF2 (LL/2 cells [1]; MMAE 3 nM with 2 Gy, replicate 3): 0.38
- SF2 (LL/2 cells [1]; MMAE 3 nM with 2 Gy, replicate 4): 0.45
- SF2 (LL/2 cells [1]; MMAE 3 nM with 2 Gy, replicate 5): 0.26
- SF2 (LL/2 cells [1]; MMAE 3 nM with 2 Gy, replicate 6): 0.38
- MMAE sensitivity of isogenic cell lines [2]: did not see an appreciable difference in MMAE sensitivity between the isogenic cell lines
- G2/M fraction (LL/2 cells [3]; MMAE 1 nM, replicate 1): 0.15
- G2/M fraction (LL/2 cells [3]; MMAE 1 nM, replicate 2): 0.12
- G2/M fraction (LL/2 cells [3]; MMAE 2 nM, replicate 1): 0.13
- G2/M fraction (LL/2 cells [3]; MMAE 2 nM, replicate 2): 0.14
- G2/M fraction (LL/2 cells [3]; MMAE 5 nM, replicate 1): 0.21
- G2/M fraction (LL/2 cells [3]; MMAE 5 nM, replicate 2): 0.23
- G2/M fraction (LL/2 cells [3]; MMAE 10 nM, replicate 1): 0.63
- G2/M fraction (LL/2 cells [3]; MMAE 10 nM, replicate 2): 0.53

Compound: cyclo(RGD)fc-MC-HN-peg8-e9-oPLGC(Me)AG-r9-c-(MC-VC-PABC-MMAE)-CONH2 [ACPP-MMAE]
- total tumor burden [4]: significantly decreased total tumor burden
- Mouse survival, status (MC38 tumors; ACPP-MMAE + IR + αPD1): 1 and 0
- Mouse survival, status (MC38 tumors; ACPP-MMAE + IR): 1
